These results are taken from patent US20200375864A1, “PERIODONTAL DISEASE TREATMENT” (STRAUMANN HOLDING AG, priority 2013, published 2020).

Series [1] concerns supragingival biofilm. In words: 70/30 supragingival biofilm model, biofilm decontamination with antimicrobial solutions (Experiments 1 and 2). The class given is cell-based. The note with it: for lasting biofilm inhibiting effect, recovery of the microorganisms after 24 h (CFU, FIG. 7) / immediate decontaminating effect compared to the saline control (CFU, FIG. 7): Experiment 1, chlorhexidine 0.2%, hydrogen peroxide 3%; for immediate decontaminating effect compared to the saline control (CFU, FIG. 7): after dip, sodium hypochlorite 3%; for biofilm microbiota after 24 h (CFU, FIG. 8) / immediate effect on the biofilm microbiota (CFU, FIG. 8): hydrogen peroxide 0.1% and 1%; for immediate effect on the biofilm microbiota (CFU, FIG. 8): immediately after application, sodium hypochlorite 0.1%, 1% and 3%, detection limit <2.0E1; for CFU 24 hours after cleaning agent treatment (summary, FIG. 3b) / CFU immediately after cleaning agent treatment (summary, FIG. 3a): supragingival model, experiments 1 and 2; for CFU immediately after cleaning agent treatment (summary, FIG. 3a): immediate. The text has this:
Evaluation of biofilm decontamination with various antimicrobial solutions Tested in a 70/30 supragingival biofilm model For a detailed description of the biofilm model used in this experiment, see e.g. Guggenheim et al., 2004, 2001 a; and Shapiro et al., 2002 and Guggenheim et al., 2009. […]

Series [2] concerns skin. As to conditions: 2% solution; cited from earlier work.
Series [3] concerns subgingival biofilm. Put plainly: subgingival biofilm model on titanium discs, antimicrobial solutions alone, total CFU (Experiment 3). It is filed as cell-based. As to conditions: for reduction of the microbiota on the biofilms compared with the saline controls immediately after exposure (total CFU, FIG. 13): immediately after 1 min exposure, NaCIO 0.1% and 1%. The text has this: (§1) Evaluation of subgingival biofilm decontamination with various antimicrobial solutions tested in a subgingival biofilm model For a detailed description of the biofilm model used in this experiment, see e.g. Guggenheim et al., 2004, 2001 a; and Shapiro et al., 2002 and Guggenheim et al., 2009. OMZ 278, Prevotella intermedia OMZ 493, Veilonella dispar OMZ 598, Fusobacterium nucleatum OMZ 607, Streptococcus oralis OMZ 661, Treponema denticola OMZ 698, Campylobacter rectus OMZ 745, Actinomyces oris OMZ 871, Streptococcus anginosus OMZ 925, Porphyromonas gingivalis OMZ 1047, Tannerella forsythia [table] The purpose of the present biofilm experiment was to assess the efficacy of various antimicrobial solutions on a subgingival microbiota associated with periodontitis and implantitis. The antimicrobial effect was evaluated immediately and 24 h after a 1 min exposure to the test solutions to biofilms grown on titanium discs.

Series [4] concerns individual members of the biofilm consortium. Put plainly: subgingival biofilm model, antimicrobial solutions alone, effect on individual species (Experiment 3). The class given is cell-based. The note with it: NaCIO 0.1% and 1%; for P. intermedia and P. gingivalis in the following 24 h (re-growth): 24 h after treatment; for immediate effect on individual species (FIGS. 9, 10 and 11): all species, immediately after 1 min exposure.
From the text: as §1

For series [5] the following is noted: cited from earlier work.

Each structure is given as a SMILES string. Entries after “also recorded” stand apart in the source; their conditions may differ.

As to `OO` [H2O2, hydrogen peroxide], the “lasting biofilm inhibiting effect, recovery of the microorganisms after 24 h (CFU, FIG. 7)” value in series [1] (24 h after dip) is “no or minute lasting biofilm inhibiting action”. The “immediate decontaminating effect compared to the saline control (CFU, FIG. 7)” value in series [1] was “very modest”. Moreover, in series [1] (Experiment 2, 24 h after dip), the “biofilm microbiota after 24 h (CFU, FIG. 8)” value is “re-established to the level of the controls”. Moreover, the “immediate effect on the biofilm microbiota (CFU, FIG. 8)” value (shortened to “immediate effect … (CFU, FIG. 8)”) in series [1] (Experiment 2) is listed as “low decontaminating action”.

`OCl` [3.0% sodium hypochlorite, Sodium hypochlorite]: the “biofilm microbiota after 24 h (CFU, FIG. 8)” value in series [1] (Experiment 2, 24 h after dip) was “no detectable microorganisms”. Also, the “immediate effect … (CFU, FIG. 8)” value in series [1] (Experiment 2) is reported as “no detectable microorganisms”.

With `[H]/N=C(\N/C(=N/[H])NCCCCCCNC(=N)NC(=N)Nc1ccc(Cl)cc1)Nc1ccc(Cl)cc1` [2% chlorhexidine, chlorhexidine], the skin irritation result in series [2] is “irritating to the skin”.

Turning to `[H]/N=C(\N/C(=N/[H])NCCCCCCNC(=N)NC(=N)Nc1ccc(Cl)cc1)Nc1ccc(Cl)cc1` [CHX, Chlorhexidine], in series [1] (24 h after dip), the “lasting biofilm inhibiting effect, recovery of the microorganisms after 24 h (CFU, FIG. 7)” value is recorded as “strong lasting effect”. In series [1], the “immediate decontaminating effect compared to the saline control (CFU, FIG. 7)” value is given as “very modest”. Besides, the “strong sustained effect on the total CFU after 24 h / biofilm re-growth” value in series [3] (Experiment 3, 24 h after 1 min exposure) was “not observed”.

Turning to `[Na+].[O-]Cl` [0.1% NaCIO, Sodium hypochlorite], in series [1] (Experiment 2, 24 h after dip), the “biofilm microbiota after 24 h (CFU, FIG. 8)” value is “in part recovered”. Moreover, in series [1], the “CFU 24 hours after cleaning agent treatment (summary, FIG. 3b)” value (“CFU 24 hours” for short) is “bacterial regrowth”.

As for `[H]/N=C(\N/C(=N/[H])NCCCCCCNC(=N)NC(=N)Nc1ccc(Cl)cc1)Nc1ccc(Cl)cc1` [1% CHX, Chlorhexidine], the “biofilm microbiota after 24 h (CFU, FIG. 8)” value in series [1] (Experiment 2, 24 h after dip) was “eradicating totally the biofilm microbiota”. In series [1], the “CFU 24 hours” value is listed as “clear CFU reduction” and the “CFU immediately after cleaning agent treatment (summary, FIG. 3a)” value (from here on “CFU immediately”) is given as “no significant immediate CFU influence”. The “reduction of the microbiota on the biofilms compared with the saline controls immediately after exposure (total CFU, FIG. 13)” value (“reduction of the microbiota” for short) in series [3] (Experiment 3) is “only a limited effect”. Further, in series [4], the “P. intermedia and P. gingivalis in the following 24 h (re-growth)” value is “eradication”; the “immediate effect on individual species (FIGS. 9, 10 and 11)” value (“immediate effect on individual species” below) is recorded as “only a limited effect”.

In the case of `OCl` [NaCIO, Sodium hypochlorite], in series [1], the “immediate decontaminating effect compared to the saline control (CFU, FIG. 7)” value is given as “very impressive”; the “CFU 24 hours” value was “no sustained effect on its own”; the “CFU immediately” value was “reduces CFU counts the most; also recorded: strong immediate CFU reduction”. Moreover, in series [1] (Experiment 2, listed as sodium hypochlorite), the “immediate effect … (CFU, FIG. 8)” value is “below the detection level”. In addition, in series [3] (Experiment 3), the “reduction of the microbiota” value is “near or to the detection limit”. Further, the “CFU immediately” value in series [3] (subgingival model, experiment 3, immediate) is on record as “strong immediate CFU reduction”. In series [4], the “P. intermedia and P. gingivalis in the following 24 h (re-growth)” value is listed as “eradication”; the “immediate effect on individual species” value is reported as “near or to the detection limit”.

Turning to `OO` [3% H2O2, hydrogen peroxide], in series [3] (Experiment 3), the “reduction of the microbiota” value is “only a limited effect”. Moreover, the “immediate effect on individual species” value in series [4] was “only a limited effect”.

Take `N=C(NCCCCCCNC(=N)NC(=N)Nc1ccc(Cl)cc1)NC(=N)Nc1ccc(Cl)cc1.O=C(O)[C@H](O)[C@@H](O)[C@H](O)[C@H](O)CO.O=C(O)[C@H](O)[C@@H](O)[C@H](O)[C@H](O)CO` [CHX gluconate, Chlorhexidine gluconate]: the solubility in water result in series [5] is recorded as “water-soluble”.

Take `[H]/N=C(\N/C(=N/[H])NCCCCCCNC(=N)NC(=N)Nc1ccc(Cl)cc1)Nc1ccc(Cl)cc1` [0.2% CHX, Chlorhexidine]: in series [1] (Experiment 2, 24 h after dip), the “reduction of the biofilm microbiota after 24 h” value was around 6 log steps. Also, the “immediate effect … (CFU, FIG. 8)” value in series [1] (Experiment 2) was “low immediate effect”. Also, in series [1], the “CFU 24 hours” value is “clear CFU reduction” and the “CFU immediately” value is given as “no significant immediate CFU influence”.
